Results from publication PMC10122661 (2023).

How the values were obtained:
[1] = test system: 2AP-mutant (riboSAM mutant, P0 helix disrupted) (RNA, riboswitch, 2-aminopurine at 59 (replaces U59)) GGGAAGAAAUAUGCCUCAACGACGUAUCAUUGUGCCUCGCUUUCCGCGGGGCGAUAAGACCUGAAGAAAGGGAUGAUAUGACAUAAGAACAUCGG; test: stopped-flow 2AP fluorescence; details: 100 mM KCl, 2 mM MgCl2; 10 mM HEPES, pH 7.5, room temperature; 0.5 μM RNA
[2] = test system: 15N-16U24G-riboSAM hybridized with 21 nt-DNA (DNA:RNA, riboswitch) GGGAAGAAAUAACAAUCAACGACGUAUCAUUGUGCCUCGCUUUCCGCGGGGCGAUAAGUCCUGAAGAAAGGGAUGAUAUGACAUAAGAACAUCGG/CCGATGTTCTTATGTCATATC; test: 1H15N-HSQC NMR; details: 25 mM K2HPO4, 50 mM KCl, 2 mM MgCl2; pH 6.5; 0.5 mM SAM, 0.5 mM RNA; 3' end blocked by 21-nt DNA
[3] = test system: 15N-16U24G-riboSAM (RNA, riboswitch) GGGAAGAAAUAACAAUCAACGACGUAUCAUUGUGCCUCGCUUUCCGCGGGGCGAUAAGUCCUGAAGAAAGGGAUGAUAUGACAUAAGAACAUCGG; test: 1H15N-HSQC NMR; details: 25 mM K2HPO4, 50 mM KCl, 2 mM MgCl2; pH 6.5, 25 or 37 °C; 0.5 mM RNA, 0.5 mM SAM
[4] = test system: riboSAM (full-length SAM-VI riboswitch, 95 nt) (RNA, riboswitch) GGGAAGAAAUAACAAUCAACGACGUAUCAUUGUGCCUCGCUUUCCGCGGGGCGAUAAGUCCUGAAGAAAGGGAUGAUAUGACAUAAGAACAUCGG …; test: ITC; details: 100 mM KCl, 10 mM MgCl2; 40 mM HEPES, pH 7.5, room temperature; 45 μM RNA
[5] = test system: 2AP-riboSAM (RNA, riboswitch, 2-aminopurine at 59 (replaces U59)) GGGAAGAAAUAACAAUCAACGACGUAUCAUUGUGCCUCGCUUUCCGCGGGGCGAUAAGACCUGAAGAAAGGGAUGAUAUGACAUAAGAACAUCGG; test: steady-state 2AP fluorescence titration; details: 100 mM KCl, 2 mM MgCl2; 10 mM HEPES, pH 7.5, room temperature; 0.5 μM RNA; apparent
[6] = test system: 15N-25U32G-riboSAM hybridized with 19 nt-DNA (DNA:RNA, riboswitch) GGGAAGAAAUAACAAUCAACGACGUAUCAUUGUGCCUCGCUUUCCGCGGGGCGAUAAGUCCUGAAGAAAGGGAUGAUAUGACAUAAGAACAUCGG/CCGATGTTCTTATGTCATA; test: 1H15N-HSQC NMR; details: 25 mM K2HPO4, 50 mM KCl, 2 mM MgCl2; pH 6.5; 3' end blocked by 19-nt DNA
[7] = test system: 2AP-riboSAM (RNA, riboswitch, 2-aminopurine at 59 (replaces U59)) GGGAAGAAAUAACAAUCAACGACGUAUCAUUGUGCCUCGCUUUCCGCGGGGCGAUAAGACCUGAAGAAAGGGAUGAUAUGACAUAAGAACAUCGG; test: stopped-flow 2AP fluorescence; details: 100 mM KCl, 2 mM MgCl2; 10 mM HEPES, pH 7.5, room temperature; 0.5 μM RNA
[8] = test system: 2AP-mutant (riboSAM mutant, P0 helix disrupted) (RNA, riboswitch, 2-aminopurine at 59 (replaces U59)) GGGAAGAAAUAUGCCUCAACGACGUAUCAUUGUGCCUCGCUUUCCGCGGGGCGAUAAGACCUGAAGAAAGGGAUGAUAUGACAUAAGAACAUCGG; test: steady-state 2AP fluorescence titration; details: 100 mM KCl, 2 mM MgCl2; 10 mM HEPES, pH 7.5, room temperature; 0.5 μM RNA; apparent

Kon [1]: 4480 ± 51 M⁻¹ s⁻¹
binding [2]: no
binding [3]: yes
Kd [4]: 1.03 ± 0.23 µM
Kd [5]: 9.650 ± 0.065 µM
binding [6]: yes
Kon [7]: 5690 ± 83 M⁻¹ s⁻¹
Kd [8]: ~ 11.861 ± 0.341 μM
Structure (SMILES): C[S+](CC[C@H](N)C(=O)O)C[C@H]1O[C@@H](n2cnc3c(N)ncnc32)[C@H](O)[C@@H]1O (some centres unmarked)
